# Measured values reported in patent US11331299B2, “Medicinal use of serrulatane diterpenes” (The University of Sydney, priority 2016, dated 2022).
# Read-outs that look alike come from different tables or passages of the source.
# Tested on: 280 human cancer cell lines
# Test: OncoPanel cell proliferation assay (10-day)
# Assay type: cell-based
# Conditions: Homo sapiens; for IC50: read-out: Cell Count IC50; for EC50: read-out: Cell Count EC50
# [1] = SW872, SW872, Soft Tissue - Sarcoma
# [2] = SW 954, SW954, Female GU - Vulva
# [3] = SW982, SW982, Soft Tissue - Sarcoma
# [4] = SW1353, SW1353, Soft Tissue - Osteosarcoma
# [5] = TE 125.T, Soft Tissue - Sarcoma
# [6] = TE 381.T, Soft Tissue - Sarcoma
# [7] = U2OS, Soft Tissue - Osteosarcoma
# [8] = U-118-MG, U-118 MG, CNS - Glioma
# [9] = VA-ES-BJ, Soft Tissue - Sarcoma
# [10] = WM 266-4, WM-266-4, Skin (Melanoma)
smiles,measurement,setting,value
"CC(C)=CCC[C@@H]1C(O)Oc2c(C)cc(O)c3c2[C@H]1CC[C@H]3C (some centres unmarked) [Compound 2, 5,18-epoxyserrulat-14-en-8,18-diol]",IC50,"SW837, SW837, Colon",> 30 µM
same,EC50,[1],4.46 µM
same,GI50,"SW872, SW872, Soft Tissue - Sarcoma, read-out: Cell Count GI50",4.45 µM
same,IC50,[1],4.46 µM
same,EC50,"SW900, SW900, Lung - SCLC",26.6 µM
same,GI50,"SW900, SW900, Lung - SCLC, read-out: Cell Count GI50",26.7 µM
same,IC50,"SW900, SW900, Lung - SCLC",26.8 µM
same,EC50,"SW948, SW948, Colon",14.7 µM
same,GI50,"SW948, SW948, Colon, read-out: Cell Count GI50",14.5 µM
same,IC50,"SW948, SW948, Colon",14.7 µM
same,EC50,[2],> 30 µM
same,GI50,"SW 954, SW954, Female GU - Vulva, read-out: Cell Count GI50",> 30 µM
same,IC50,[2],> 30 µM
same,EC50,[3],7.63 µM
same,GI50,"SW982, SW982, Soft Tissue - Sarcoma, read-out: Cell Count GI50",7.53 µM
same,IC50,[3],7.63 µM
same,EC50,"SW1088, SW1088, CNS - Glioma",10.7 µM
same,GI50,"SW1088, SW1088, CNS - Glioma, read-out: Cell Count GI50",10.5 µM
same,IC50,"SW1088, SW1088, CNS - Glioma",10.7 µM
same,EC50,[4],9.49 µM
same,GI50,"SW1353, SW1353, Soft Tissue - Osteosarcoma, read-out: Cell Count GI50",9.46 µM
same,IC50,[4],9.49 µM
same,EC50,"SW1417, SW1417, Colon",22.8 µM
same,GI50,"SW1417, SW1417, Colon, read-out: Cell Count GI50",21.8 µM
same,IC50,"SW1417, SW1417, Colon",22.8 µM
same,EC50,"SW1463, SW1463, Colon",> 30 µM
same,GI50,"SW1463, SW1463, Colon, read-out: Cell Count GI50",> 30 µM
same,IC50,"SW1463, SW1463, Colon",> 30 µM
same,EC50,"SW1783, SW1783, CNS - Glioma",10.2 µM
same,GI50,"SW1783, SW1783, CNS - Glioma, read-out: Cell Count GI50",10.5 µM
same,IC50,"SW1783, SW1783, CNS - Glioma",11 µM
same,EC50,"SW-403, SW403, Colon",> 30 µM
same,GI50,"SW-403, SW403, Colon, read-out: Cell Count GI50",> 30 µM
same,IC50,"SW-403, SW403, Colon",> 30 µM
same,EC50,"SW-620, SW620, Colon",13.2 µM
same,GI50,"SW-620, SW620, Colon, read-out: Cell Count GI50",13.2 µM
same,IC50,"SW-620, SW620, Colon",13.2 µM
same,EC50,"SiHa, Female GU - Cervix",28.3 µM
same,GI50,"SiHa, Female GU - Cervix, read-out: Cell Count GI50",25.8 µM
same,IC50,"SiHa, Female GU - Cervix",28.3 µM
same,EC50,"T24, Bladder",20.4 µM
same,GI50,"T24, Bladder, read-out: Cell Count GI50",20.3 µM
same,IC50,"T24, Bladder",20.4 µM
same,EC50,"T47D, Breast",10.2 µM
same,GI50,"T47D, Breast, read-out: Cell Count GI50",9.4 µM
same,IC50,"T47D, Breast",10.2 µM
same,EC50,"T98G, CNS - Glioma",19.1 µM
same,GI50,"T98G, CNS - Glioma, read-out: Cell Count GI50",19 µM
same,IC50,"T98G, CNS - Glioma",19.1 µM
same,EC50,"TCC-SUP, TCCSUP, Bladder",8.2 µM
same,GI50,"TCC-SUP, TCCSUP, Bladder, read-out: Cell Count GI50",7.78 µM
same,IC50,"TCC-SUP, TCCSUP, Bladder",8.2 µM
same,EC50,[5],> 30 µM
same,GI50,"TE 125.T, Soft Tissue - Sarcoma, read-out: Cell Count GI50",28.7 µM
same,IC50,[5],> 30 µM
same,EC50,[6],8.14 µM
same,GI50,"TE 381.T, Soft Tissue - Sarcoma, read-out: Cell Count GI50",7.99 µM
same,IC50,[6],8.14 µM
same,EC50,"TF-1, Leukemia",2.75 µM
same,GI50,"TF-1, Leukemia, read-out: Cell Count GI50",2.44 µM
same,IC50,"TF-1, Leukemia",2.75 µM
same,EC50,"THP-1, Thp1, Leukemia",5.32 µM
same,GI50,"THP-1, Thp1, Leukemia, read-out: Cell Count GI50",5.61 µM
same,IC50,"THP-1, Thp1, Leukemia",5.69 µM
same,EC50,"TUR, Lymphoma",2.63 µM
same,GI50,"TUR, Lymphoma, read-out: Cell Count GI50",> 30 µM
same,IC50,"TUR, Lymphoma",> 30 µM
same,EC50,[7],12.7 µM
same,GI50,"U2OS, Soft Tissue - Osteosarcoma, read-out: Cell Count GI50",12.7 µM
same,IC50,[7],12.7 µM
same,EC50,"U138-MG, U-138MG, CNS - Glioma",> 30 µM
same,GI50,"U138-MG, U-138MG, CNS - Glioma, read-out: Cell Count GI50",> 30 µM
same,IC50,"U138-MG, U-138MG, CNS - Glioma",> 30 µM
same,EC50,"U266B1, Myeloma",9.15 µM
same,GI50,"U266B1, Myeloma, read-out: Cell Count GI50",9.01 µM
same,IC50,"U266B1, Myeloma",9.28 µM
same,EC50,"U-87 MG, CNS - Glioma",> 30 µM
same,GI50,"U-87 MG, CNS - Glioma, read-out: Cell Count GI50",> 30 µM
same,IC50,"U-87 MG, CNS - Glioma",> 30 µM
same,EC50,[8],29.6 µM
same,GI50,"U-118-MG, U-118 MG, CNS - Glioma, read-out: Cell Count GI50",29.4 µM
same,IC50,[8],29.6 µM
same,EC50,"UMUC3, UM-UC-3, Bladder",5.3 µM
same,GI50,"UMUC3, UM-UC-3, Bladder, read-out: Cell Count GI50",5.74 µM
same,IC50,"UMUC3, UM-UC-3, Bladder",5.75 µM
same,EC50,[9],> 30 µM
same,GI50,"VA-ES-BJ, Soft Tissue - Sarcoma, read-out: Cell Count GI50",> 30 µM
same,IC50,[9],> 30 µM
same,EC50,[10],6.39 µM
same,GI50,"WM 266-4, WM-266-4, Skin (Melanoma), read-out: Cell Count GI50",6.25 µM
same,IC50,[10],6.39 µM
same,EC50,"WiDr, Colon",14.5 µM
same,GI50,"WiDr, Colon, read-out: Cell Count GI50",14.4 µM
same,IC50,"WiDr, Colon",14.5 µM
same,EC50,"Y79, Eye",6.57 µM
same,GI50,"Y79, Eye, read-out: Cell Count GI50",7.41 µM
same,IC50,"Y79, Eye",7.65 µM
same,EC50,"YAPC, Pancreas",13 µM
same,GI50,"YAPC, Pancreas, read-out: Cell Count GI50",12.9 µM
same,IC50,"YAPC, Pancreas",13 µM
same,GI50,"strong: J-RT3-T3-5, Jurkat, MOLT-3, NALM-6, TF-1, RPMI8226, SKO-007, RD, read-out: GI50",1 to 2.96 µM
